Laboratory results as given in ChEMBL document CHEMBL5346952, “Dimer Peptide Ligands of Vascular Endothelial Growth Factor: Optimizing Linker Length for High Affinity and Antiangiogenic Activity” (J Med Chem, 2023).
pKd: −log10 of the molar value. Starred links: 1 amine or outer side, 2 acyl side, 3 side chain; linkers in the order of their positions; H or OH if unused. Positions of bridges follow the written chain, without caps; N, C: chain ends. Residues, ends and D or L forms follow the SMILES beside them. Chains are numbered I, II in the order given. CO(CH2)2(OCH2CH2)17CO = O=C(CCOCCOCCOCCOCCOCCOCCOCCOCCOCCOCCOCCOCCOCCOCCOCCOCCOCCC(=O)[*:2])[*:1]; X3 = O=C(CCOCCOCCOCCOCCOCCOCCOCCOCCOCCOCCOCCOCCOCCOCCOCCOCCOCCOCCOCCOCCOCCC(=O)[*:2])[*:1]; CO(CH2CH2O)13CH2CH2CO = O=C(CCOCCOCCOCCOCCOCCOCCOCCOCCOCCOCCOCCOCCOCCC(=O)[*:2])[*:1]; CO(CH2CH2O)9CH2CH2CO = O=C(CCOCCOCCOCCOCCOCCOCCOCCOCCOCCC(=O)[*:2])[*:1]

What was measured:
[1] = molecular target: T1, Vascular endothelial growth factor A, long form (Homo sapiens, UniProt P15692); test: Binding affinity to human VEGF (13 to 107 residues) expressed in Escherichia coli Rosetta (DE3) cells assessed as dissociation constant at 20 degreeC by isothermal titration calorimetry analysis
T1 sequence (P15692 whole entry): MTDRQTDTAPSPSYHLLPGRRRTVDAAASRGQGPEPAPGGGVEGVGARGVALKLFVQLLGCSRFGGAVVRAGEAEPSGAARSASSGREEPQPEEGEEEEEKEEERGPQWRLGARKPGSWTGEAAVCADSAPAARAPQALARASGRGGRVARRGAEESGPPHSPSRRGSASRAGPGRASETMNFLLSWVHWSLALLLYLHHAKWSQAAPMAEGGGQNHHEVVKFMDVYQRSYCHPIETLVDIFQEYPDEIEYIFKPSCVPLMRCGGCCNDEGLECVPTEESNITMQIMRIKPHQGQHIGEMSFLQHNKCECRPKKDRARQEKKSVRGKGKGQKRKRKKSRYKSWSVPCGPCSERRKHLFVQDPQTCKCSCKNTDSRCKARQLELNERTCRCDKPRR

[2] = molecular target: T1, Vascular endothelial growth factor A, long form; test: Binding affinity to human VEGF (13 to 107 residues) expressed in Escherichia coli Rosetta (DE3) cells assessed as dissociation constant at 37 degreeC by isothermal titration calorimetry analysis
[3] = molecular target: T2, Vascular endothelial growth factor A, long form (Homo sapiens) (UniProt P15692); test: Binding affinity to human VEGF (13 to 107 residues) expressed in Escherichia coli Rosetta (DE3) cells assessed as change in enthalpy at 37 degreeC by isothermal titration calorimetry analysis
T2 sequence (whole entry): T1 sequence (P15692 whole entry)

[4] = molecular target: T2, Vascular endothelial growth factor A, long form (Homo sapiens); test: Binding affinity to human VEGF (13 to 107 residues) expressed in Escherichia coli Rosetta (DE3) cells assessed as change in entropy at 20 degreeC by isothermal titration calorimetry analysis
[5] = molecular target: T2, Vascular endothelial growth factor A, long form (Homo sapiens); test: Binding affinity to human VEGF (13 to 107 residues) expressed in Escherichia coli Rosetta (DE3) cells assessed as Gibbs free energy change at 20 degreeC by isothermal titration calorimetry analysis
[6] = molecular target: T2, Vascular endothelial growth factor A, long form (Homo sapiens); test: Binding affinity to human VEGF (13 to 107 residues) expressed in Escherichia coli Rosetta (DE3) cells assessed as change in enthalpy at 20 degreeC by isothermal titration calorimetry analysis
[7] = molecular target: T2, Vascular endothelial growth factor A, long form (Homo sapiens); test: Binding affinity to human VEGF (13 to 107 residues) expressed in Escherichia coli Rosetta (DE3) cells assessed as change in heat capacity at 20 degreeC by isothermal titration calorimetry analysis
[8] = molecular target: T2, Vascular endothelial growth factor A, long form (Homo sapiens); test: Binding affinity to human VEGF (13 to 107 residues) expressed in Escherichia coli Rosetta (DE3) cells assessed as change in entropy at 37 degreeC by isothermal titration calorimetry analysis
[9] = molecular target: T2, Vascular endothelial growth factor A, long form (Homo sapiens); test: Binding affinity to human VEGF (13 to 107 residues) expressed in Escherichia coli Rosetta (DE3) cells assessed as Gibbs free energy change at 37 degreeC by isothermal titration calorimetry analysis

CC[C@H](C)[C@@H]1NC(=O)[C@H](CC(=O)O)NC(=O)[C@@H](NC(C)=O)CSSC[C@@H]2NC(=O)[C@H](CCCCNC(=O)C[C@@H](C(=O)N[C@@H](CC(C)C)C(N)=O)NC(=O)[C@H](CCC(=O)O)NC(=O)[C@H](Cc3ccccc3)NC2=O)NC(=O)[C@H](Cc2c[nH]c3ccccc23)NC(=O)[C@H](CCC(=O)O)NC(=O)[C@H](Cc2c[nH]c3ccccc23)NC(=O)[C@H](CCCCN)NC(=O)[C@H](C(C)C)NC(=O)[C@H](Cc2cnc[nH]2)NC1=O (Ac-CDIHVKWEWKCFEDL-NH2; disulfide 1-11; lactam 10-14)
pKd [1]: 6.89 | pKd [2]: 6.24

CC[C@H](C)[C@@H]1NC(=O)[C@H](CC(=O)O)NC(=O)[C@@H](NC(C)=O)CSSC[C@@H]2NC(=O)[C@H](CCCCNC(=O)C[C@@H](C(=O)N[C@@H](CC(C)C)C(N)=O)NC(=O)[C@H](CCC(=O)O)NC(=O)[C@H](Cc3ccccc3)NC2=O)NC(=O)[C@H](Cc2c[nH]c3ccccc23)NC(=O)[C@H](CCC(=O)O)NC(=O)[C@H](Cc2c[nH]c3ccccc23)NC(=O)[C@H](CCCCNC(=O)CCOCCOCCOCCOCCOCCOCCOCCOCCOCCOCCOCCOCCOCCOCCOCCOCCOCCC(=O)NCCCC[C@@H]2NC(=O)[C@H](C(C)C)NC(=O)[C@H](Cc3cnc[nH]3)NC(=O)[C@H]([C@@H](C)CC)NC(=O)[C@H](CC(=O)O)NC(=O)[C@@H](NC(C)=O)CSSC[C@@H]3NC(=O)[C@H](CCCCNC(=O)C[C@@H](C(=O)N[C@@H](CC(C)C)C(N)=O)NC(=O)[C@H](CCC(=O)O)NC(=O)[C@H](Cc4ccccc4)NC3=O)NC(=O)[C@H](Cc3c[nH]c4ccccc34)NC(=O)[C@H](CCC(=O)O)NC(=O)[C@H](Cc3c[nH]c4ccccc34)NC2=O)NC(=O)[C@H](C(C)C)NC(=O)[C@H](Cc2cnc[nH]2)NC1=O (I: Ac-CDIHVKWEWKCFEDL-NH2 / II: Ac-CDIHVKWEWKCFEDL-NH2; disulfide I:1-I:11, II:1-II:11; linker I:6-II:6 via CO(CH2)2(OCH2CH2)17CO; lactam I:10-I:14, II:10-II:14)
deltaH [3]: -48.3 kcal/mol | pKd [1]: 7.66 | pKd [2]: 7.29 | -TdeltaS [4]: 27.9 kcal/mol | deltaG [5]: -10.3 kcal/mol | deltaH [6]: -38.1 kcal/mol | DeltaCp [7]: -0.6 kcal/mol/K | -TdeltaS [8]: 37.9 kcal/mol | deltaG [9]: -10.4 kcal/mol

CC[C@H](C)[C@@H]1NC(=O)[C@H](CC(=O)O)NC(=O)[C@@H](NC(C)=O)CSSC[C@@H]2NC(=O)[C@H](CCCCNC(=O)C[C@@H](C(=O)N[C@@H](CC(C)C)C(N)=O)NC(=O)[C@H](CCC(=O)O)NC(=O)[C@H](Cc3ccccc3)NC2=O)NC(=O)[C@H](Cc2c[nH]c3ccccc23)NC(=O)[C@H](CCC(=O)O)NC(=O)[C@H](Cc2c[nH]c3ccccc23)NC(=O)[C@H](CCCCNC(=O)CCOCCOCCOCCOCCOCCOCCOCCOCCOCCC(=O)NCCCC[C@@H]2NC(=O)[C@H](C(C)C)NC(=O)[C@H](Cc3cnc[nH]3)NC(=O)[C@H]([C@@H](C)CC)NC(=O)[C@H](CC(=O)O)NC(=O)[C@@H](NC(C)=O)CSSC[C@@H]3NC(=O)[C@H](CCCCNC(=O)C[C@@H](C(=O)N[C@@H](CC(C)C)C(N)=O)NC(=O)[C@H](CCC(=O)O)NC(=O)[C@H](Cc4ccccc4)NC3=O)NC(=O)[C@H](Cc3c[nH]c4ccccc34)NC(=O)[C@H](CCC(=O)O)NC(=O)[C@H](Cc3c[nH]c4ccccc34)NC2=O)NC(=O)[C@H](C(C)C)NC(=O)[C@H](Cc2cnc[nH]2)NC1=O (I: Ac-CDIHVKWEWKCFEDL-NH2 / II: Ac-CDIHVKWEWKCFEDL-NH2; disulfide I:1-I:11, II:1-II:11; linker I:6-II:6 via CO(CH2CH2O)9CH2CH2CO; lactam I:10-I:14, II:10-II:14)
deltaH [3]: -42.1 kcal/mol | pKd [1]: 7.59 | pKd [2]: 7.05 | -TdeltaS [4]: 22.6 kcal/mol | deltaG [5]: -10.2 kcal/mol | deltaH [6]: -32.8 kcal/mol | DeltaCp [7]: -0.55 kcal/mol/K | -TdeltaS [8]: 32.1 kcal/mol | deltaG [9]: -10 kcal/mol

CC[C@H](C)[C@@H]1NC(=O)[C@H](CC(=O)O)NC(=O)[C@@H](NC(C)=O)CSSC[C@@H]2NC(=O)[C@H](CCCCNC(=O)C[C@@H](C(=O)N[C@@H](CC(C)C)C(N)=O)NC(=O)[C@H](CCC(=O)O)NC(=O)[C@H](Cc3ccccc3)NC2=O)NC(=O)[C@H](Cc2c[nH]c3ccccc23)NC(=O)[C@H](CCC(=O)O)NC(=O)[C@H](Cc2c[nH]c3ccccc23)NC(=O)[C@H](CCCCNC(=O)CCOCCOCCOCCOCCOCCOCCOCCOCCOCCOCCOCCOCCOCCC(=O)NCCCC[C@@H]2NC(=O)[C@H](C(C)C)NC(=O)[C@H](Cc3cnc[nH]3)NC(=O)[C@H]([C@@H](C)CC)NC(=O)[C@H](CC(=O)O)NC(=O)[C@@H](NC(C)=O)CSSC[C@@H]3NC(=O)[C@H](CCCCNC(=O)C[C@@H](C(=O)N[C@@H](CC(C)C)C(N)=O)NC(=O)[C@H](CCC(=O)O)NC(=O)[C@H](Cc4ccccc4)NC3=O)NC(=O)[C@H](Cc3c[nH]c4ccccc34)NC(=O)[C@H](CCC(=O)O)NC(=O)[C@H](Cc3c[nH]c4ccccc34)NC2=O)NC(=O)[C@H](C(C)C)NC(=O)[C@H](Cc2cnc[nH]2)NC1=O (I: Ac-CDIHVKWEWKCFEDL-NH2 / II: Ac-CDIHVKWEWKCFEDL-NH2; disulfide I:1-I:11, II:1-II:11; linker I:6-II:6 via CO(CH2CH2O)13CH2CH2CO; lactam I:10-I:14, II:10-II:14)
deltaH [3]: -46 kcal/mol | pKd [1]: 7.70 | pKd [2]: 7.25 | -TdeltaS [4]: 26 kcal/mol | deltaG [5]: -10.3 kcal/mol | deltaH [6]: -36.3 kcal/mol | DeltaCp [7]: -0.57 kcal/mol/K | -TdeltaS [8]: 35.7 kcal/mol | deltaG [9]: -10.3 kcal/mol

CC[C@H](C)[C@@H]1NC(=O)[C@H](CC(=O)O)NC(=O)[C@@H](NC(C)=O)CSSC[C@@H]2NC(=O)[C@H](CCCCNC(=O)C[C@@H](C(=O)N[C@@H](CC(C)C)C(N)=O)NC(=O)[C@H](CCC(=O)O)NC(=O)[C@H](Cc3ccccc3)NC2=O)NC(=O)[C@H](Cc2c[nH]c3ccccc23)NC(=O)[C@H](CCC(=O)O)NC(=O)[C@H](Cc2c[nH]c3ccccc23)NC(=O)[C@H](CCCCNC(=O)CCOCCOCCOCCOCCOCCOCCOCCOCCOCCOCCOCCOCCOCCOCCOCCOCCOCCOCCOCCOCCOCCC(=O)NCCCC[C@@H]2NC(=O)[C@H](C(C)C)NC(=O)[C@H](Cc3cnc[nH]3)NC(=O)[C@H]([C@@H](C)CC)NC(=O)[C@H](CC(=O)O)NC(=O)[C@@H](NC(C)=O)CSSC[C@@H]3NC(=O)[C@H](CCCCNC(=O)C[C@@H](C(=O)N[C@@H](CC(C)C)C(N)=O)NC(=O)[C@H](CCC(=O)O)NC(=O)[C@H](Cc4ccccc4)NC3=O)NC(=O)[C@H](Cc3c[nH]c4ccccc34)NC(=O)[C@H](CCC(=O)O)NC(=O)[C@H](Cc3c[nH]c4ccccc34)NC2=O)NC(=O)[C@H](C(C)C)NC(=O)[C@H](Cc2cnc[nH]2)NC1=O (I: Ac-CDIHVKWEWKCFEDL-NH2 / II: Ac-CDIHVKWEWKCFEDL-NH2; disulfide I:1-I:11, II:1-II:11; linker I:6-II:6 via X3; lactam I:10-I:14, II:10-II:14)
deltaH [3]: -51.3 kcal/mol | pKd [1]: 7.82 | pKd [2]: 7.43 | -TdeltaS [4]: 26.1 kcal/mol | deltaG [5]: -10.5 kcal/mol | deltaH [6]: -36.6 kcal/mol | DeltaCp [7]: -0.86 kcal/mol/K | -TdeltaS [8]: 40.7 kcal/mol | deltaG [9]: -10.5 kcal/mol

COc1ccc([C@H]2CNC(=O)C2)cc1OC1CCCC1 [S-ROLIPRAM]
-TdeltaS [4]: 17 kcal/mol | deltaG [5]: -12.3 kcal/mol | deltaH [6]: -29.3 kcal/mol
